Measured values as given in US9605026B2, “Hydrogen-bond surrogate peptides and peptidomimetics for p53 reactivation” (New York University, priority 2013, dated 2017).

How the values were obtained:
[1] = test system: UMSCC47 cells; test: Clonogenic survival of UMSCC47 cells; assay type: cell-based, human; conditions: UMSCC47, 10 μM at day 0, colonies at 14 days, vs vehicle
[2] = test system: p53-regulated genes (p21, miR-34a, miR-200c); test: qPCR expression of p300, p53, p21, miR-34a, miR-200c in UMSCC47 cells; assay type: cell-based, human; conditions: UMSCC47, 10 μM, 24 hours, vs control
Source text: FIG. 5A is an schematic illustration showing that CH1 has two distinct target sites. HIF1-α/p300 structures were used as guides to design helix mimetics that target site A and site B on the CH1 domain of p300. […] CH1iA (SEQ ID NO: 7) and CH1iB (SEQ ID NO: 8) were designed to mimic two helices from the C-terminal domain of HIF-1α. The peptides were locked into the helical conformation by the hydrogen bond surrogate method. FIG. 5C is a graph of p53 activity. UMSCC47 (left) and UMSCC74A (right) cells were co-transfected with a p53 Firefly luciferase reporter plasmid and a control Renilla luciferase plasmid. After 24 hours, cells were treated with control (vehicle), CH1iA (10 μM), or CH1iB (10 μM) for 24 hours. Firefly luciferase activity was normalized to Renilla luciferase activity to control for transfection efficiency. Data is normalized to control and presented as mean±SEM. *P<0.05, n=3. […] UMSCC47 (top panel) and UMSCC74A (bottom panel) cells were treated with control (vehicle), CH1iA (10 μM), or CH1iB (10 μM) for 24 hours. mRNA expression was determined using qPCR with validated TaqMan assays. […]
FIG. 6A is a western blot showing total and acetylated p53 levels. […] UMSCC47 cells were treated with control (vehicle), CH1iB (10 μM), cis-platinum (10 μM), or CH1iB (10 μM) and cis-platinum (10 μM) for 24 hours. mRNA expression was determined using qPCR with validated TaqMan assays. […]

“XELA*RALDQ-NH2 (ELXRALDQ; HBS: 4-pentenoic acid, N-allylalanine; C-terminal amide; CH1iB) [X 4-pentenoic acid, A* N-allylalanine]” was tested, and the “reduction (inhibition) of clonogenic survival” value [1] was 35% and the “p21, miR-34a, and miR-200c expression” value [2] was “modest but significant increase”.
